Assays:
Assay in all cases: relative viability (nuclei count vs DMSO), 5 days (fraction); higher = more cells survive
Linsitinib + Trametinib = compound: C[C@]1(O)C[C@@H](c2nc(-c3ccc4ccc(-c5ccccc5)nc4c3)c3c(N)nccn32)C1 [Linsitinib] + CC(=O)Nc1cccc(-n2c(=O)n(C3CC3)c(=O)c3c(Nc4ccc(I)cc4F)n(C)c(=O)c(C)c32)c1 [Trametinib] (partner 0.02 µM)
How it was run: (§1)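 Dosing by pin tool came one day after lung cancer cell lines were seeded in 1536-well plates, using either one drug or a fixed anchor-drug dose plus five library-drug doses (not always all listed) in √10 steps. After 5 days, nuclei were counted on 4× images. Relative viability is treated-well nuclei count divided by vehicle-well nuclei count, and values are medians of duplicate plates.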

Ispinesib + AZD7762 = compound: Cc1ccc(C(=O)N(CCCN)[C@@H](c2nc3cc(Cl)ccc3c(=O)n2Cc2ccccc2)C(C)C)cc1 [Ispinesib] + NC(=O)Nc1cc(-c2cccc(F)c2)sc1C(=O)N[C@H]1CCCNC1 [AZD7762] (partner 0.2 µM)
How it was run: as §1

Ispinesib + OSI-027 = compound: Cc1ccc(C(=O)N(CCCN)[C@@H](c2nc3cc(Cl)ccc3c(=O)n2Cc2ccccc2)C(C)C)cc1 [Ispinesib] + COc1cccc2cc(-c3nc([C@H]4CC[C@H](C(=O)O)CC4)n4ncnc(N)c34)[nH]c12 [OSI-027] (partner 0.5 µM)
How it was run: as §1

Ispinesib + Trametinib = compound: Cc1ccc(C(=O)N(CCCN)[C@@H](c2nc3cc(Cl)ccc3c(=O)n2Cc2ccccc2)C(C)C)cc1 [Ispinesib] + CC(=O)Nc1cccc(-n2c(=O)n(C3CC3)c(=O)c3c(Nc4ccc(I)cc4F)n(C)c(=O)c(C)c32)c1 [Trametinib] (partner 0.02 µM)
How it was run: as §1

Cell Line	relative viability (Linsitinib + Trametinib; first compound 0.01 µM)	relative viability (Linsitinib + Trametinib; first compound 0.03162 µM)	relative viability (Linsitinib + Trametinib; first compound 0.1 µM)	relative viability (Linsitinib + Trametinib; first compound 0.3162 µM)	relative viability (Linsitinib + Trametinib; first compound 1 µM)	relative viability (Ispinesib + AZD7762; first compound 0.001 µM)	relative viability (Ispinesib + AZD7762; first compound 0.003162 µM)	relative viability (Ispinesib + AZD7762; first compound 0.01 µM)	relative viability (Ispinesib + AZD7762; first compound 0.03162 µM)	relative viability (Ispinesib + AZD7762; first compound 0.1 µM)	relative viability (Ispinesib + OSI-027; first compound 0.001 µM)	relative viability (Ispinesib + OSI-027; first compound 0.003162 µM)	relative viability (Ispinesib + OSI-027; first compound 0.01 µM)	relative viability (Ispinesib + OSI-027; first compound 0.03162 µM)	relative viability (Ispinesib + OSI-027; first compound 0.1 µM)	relative viability (Ispinesib + Trametinib; first compound 0.001 µM)	relative viability (Ispinesib + Trametinib; first compound 0.003162 µM)	relative viability (Ispinesib + Trametinib; first compound 0.01 µM)	relative viability (Ispinesib + Trametinib; first compound 0.03162 µM)	relative viability (Ispinesib + Trametinib; first compound 0.1 µM)
NCI-H358	0.15	0.148	0.13	0.118	0.0976	0.654	0.462	0.514	0.433	0.253	0.999	0.837	1.02	0.392	0.129	0.126	0.131	0.128	0.115	0.106
NCI-H2126	0.568	0.552	0.533	0.509	0.473	1.04	1.08	1.2	1.03	0.591	0.757	0.894	0.674	0.664	0.63	0.542	0.574	0.58	0.589	0.508
ChaGo-K-1	0.947	0.973	0.892		0.961	1.01	0.874	0.879	0.903	0.245	0.529	0.627	0.582	0.627	0.222	0.903	0.999	1.06	0.992	0.895
NCI-H1437	0.518	0.518	0.519	0.34	0.352	1.16	1.15	1.18	1.13	0.296	1.1	0.881	1.16	0.938	0.263	0.557	0.541	0.688	0.614	0.144
NCI-H838	0.464	0.498	0.435	0.333	0.369	1.01	0.804	1.03	0.941	0.714	0.425	0.359	0.539	0.436	0.197	0.627	0.529	0.542	0.359	0.164
NCI-H1755	0.731	0.783	0.76	0.715	0.721	0.489	0.437	0.433	0.408	0.274	0.665	0.791	0.859	0.57	0.321	0.843	0.838	0.751	0.713	0.758
NCI-H1915	0.292	0.332	0.292	0.308	0.268	0.728	0.687	0.748	0.451	0.112	0.679	0.514	0.751	0.252	0.212	0.29	0.323	0.314	0.279	0.22
NCI-H2347	0.277	0.274	0.303	0.287	0.418	0.558	0.856	0.745	0.701	0.636	0.317	0.421	0.456	0.368	0.437	0.299	0.23	0.294	0.343	0.252
HARA	0.448	0.809	0.878		0.623	0.501	0.345	0.365	0.308	0.227	0.641	0.553	0.535	0.0672	0.0972	0.727	0.634	0.816	1.14	0.234
NCI-H2085	0.557	0.644	0.503	0.449	0.514	0.962	1.08	1.07	0.806	0.466	0.815	0.715	0.824	0.541	0.264	0.498	0.563	0.58	0.519	0.472
NCI-H650	1.04	1.06	0.902		0.87	1.15	1.21	1.09	0.634	0.456	0.571	0.624	0.585	0.381	0.23	0.969	1.07	1.03	0.828	0.779
NCI-H727	0.349	0.403	0.317	0.358	0.29	0.722	0.564		0.548	0.498	0.856	0.707	0.604	0.404	0.361	0.376	0.39		0.382	0.419
NCI-H1993	0.46	0.494	0.398	0.476	0.504	0.918	0.821	0.636	0.646	0.508	0.518	0.601	0.565	0.514	0.442	0.619	0.527	0.414	0.508	0.423
EMC-BAC-2	0.93	0.939	0.82	0.575	0.593	1.22	1.23	1.34	0.704	0.599	0.388	0.402	0.356	0.25	0.309	0.846	0.966	0.965	0.624	0.312
NCI-H2087	0.197	0.204	0.183	0.15	0.191	1.35	1.37	1.48	1.02	0.558	0.551	0.643	0.535	0.206	0.102	0.153	0.196	0.212	0.236	0.0806
NCI-H441	0.537	0.44	0.339	0.215	0.231	1.41	1.22	1.44	0.64	0.309	0.582	0.738	0.517	0.175	0.285	0.47	0.458	0.284	0.255	0.212
